Consider 32 compounds from patent US6043357A, “HIV protease inhibitors” (The University of Queensland, priority 1994, dated 2000).

“Also recorded” adds a separate entry of the source. Read-outs that look alike come from different tables or passages of the source.

In this experiment the target is HIV-1 protease (Human immunodeficiency virus type 1 group M subtype B, UniProt P03369). The experiment in a line: biochemical. On the procedure: HIV-1 protease activity was measured at 37° C. using a continuous fluorimetric assay based on the method of Toth et al., (Toth et al., 1990, Int. J. Pept. Res. 36 544-550). The substrate, 2-aminobenzoyl-threonine-isoleucine-norleucine-(p-nitro)-phenylalanine-glutamine-arginine-NH2 (Abz-NF^* -6), was synthesised by solid phase peptide synthesis (Kent et al., 1991, In: Peptides 1990: Proceedings of the Twenty-First European Peptide Symposium (Girault, E. and Andrew, D. eds.) pp 172-173, ESCOM, Leiden). Enzyme activity was measured as the increase in fluorescence intensity upon substrate hydrolysis. The change in fluorescence intensity was monitored with a Perkin Elmer LS50B luminescence spectrometer fitted with a thermostatted micro cuvette holder. Measurements were carried out using an excitation wavelength of 320 nm (bandwith 5 nm) and an emission wavelength of […] (bandwith 5 nm).
Inhibition assays were routinely carried out at pH 6.5 and μ=0.1 M using a single substrate concentration. The assay mixtures contained 50 μM Abz-NF^* -6 in 100 mM 2-(N-morpholino)ethanesulphonate buffer, containing 10% (v/v) glycerol and 50 μg/ml bovine serum albumin, in a total final volume of 400 μl. Where inhibitors had to be dissolved in dimethyl sulphoxide or other organic solvents, the final concentration of solvent in the control and inhibition assays were kept absolutely constant because of the severe inhibitory effect of some solvents on the enzyme activity (Bergman et al., 1992, 17th Ann. Lorne Conf. on Protein Struct. and Funct. Abstr.). In all assays, the reaction was initiated by the addition of 10 μl of enzyme solution.

[1] abbreviates: Table 5, pH 6.5, 37° C., read-out: IC50.
Where [2] appears, read: Table 7, pH 6.5, 37° C., read-out: IC50.
The mark [3] stands for this setting: Table 9, R isomer, read-out: IC50.
Setting [4] is: Table 10, pH 6.5, 37° C., read-out: IC50.

The IC50 is the point on the concentration scale where inhibition reaches its midpoint. Turning to `CCOC(=O)CCCOc1ccc(C[C@H](NC(=O)[C@H](CC(N)=O)NC(=O)OC(C)(C)C)[C@H](O)CN2CCC[C@H]2C(=O)NC(C)(C)C)cc1` [Compound 36], the “protease inhibition, stated in words” value is listed as “much less active than 38 & 39”. Besides, the IC50 under setting [1] worked out at 7050 nM.

With `CCOC(=O)CCCOc1ccc(C[C@H](NC(=O)[C@H](CC(N)=O)NC(=O)OC(C)(C)C)[C@@H](O)CN2CCC[C@H]2C(=O)NC(C)(C)C)cc1` [Compound 37], the “protease inhibition, stated in words” value is “much less active than 38 & 39”. Further, the IC50 under setting [1] turned out to be 22000 nM. On to `CC(C)(C)NC(=O)[C@@H]1CCCN1C[C@@H](O)[C@@H]1Cc2ccc(cc2)OCCCC(=O)N[C@@H](CC(N)=O)C(=O)N1` [Compound 38], for which the IC50 (read-out: IC50) is 194 nM. As to `CC(C)(C)NC(=O)[C@@H]1CCCN1C[C@H](O)[C@@H]1Cc2ccc(cc2)OCCCC(=O)N[C@@H](CC(N)=O)C(=O)N1` [Compound 39], where the note is “read-out: IC50”, the IC50 is 490 nM.

`CC(C)N(C(=O)[C@@H]1CCCN1C[C@@H](O)[C@@H]1Cc2ccc(cc2)OCCCC(=O)N[C@@H](CC(N)=O)C(=O)N1)C(C)C` [Compound 40]: the IC50 was determined as 106000 nM and the “protease inhibition, stated in words” value is on record as “much less active”. Regarding `CC(C)N(C(=O)[C@@H]1CCCN1C[C@H](O)[C@@H]1Cc2ccc(cc2)OCCCC(=O)N[C@@H](CC(N)=O)C(=O)N1)C(C)C` [Compound 41], it took 290000 nM to reach half-maximal inhibition (IC50) and the “protease inhibition, stated in words” value was “much less active”.

On to `CC(C)(C)NC(=O)[C@@H]1CCCCN1C[C@H](O)[C@@H]1Cc2ccc(cc2)OCCCC(=O)N[C@@H](CC(N)=O)C(=O)N1` [Compound 45], for which the IC50 came to 5600 nM. Take `CC[C@H](C)[C@H](NC(=O)[C@H](Cc1ccccc1)NC[C@@H](O)[C@@H]1Cc2ccc(cc2)OCCCC(=O)N[C@@H](C(C)C)C(=O)N1)C(=O)N[C@H](C(N)=O)C(C)C` [Compound 46]: the “protease inhibition, stated in words” value is “there was not a great deal of difference”. Take `CC[C@H](C)[C@H](NC(=O)[C@H](Cc1ccccc1)NC[C@H](O)[C@@H]1Cc2ccc(cc2)OCCCC(=O)N[C@@H](C(C)C)C(=O)N1)C(=O)N[C@H](C(N)=O)C(C)C` [Compound 47]: the “protease inhibition, stated in words” value is given as “there was not a great deal of difference”. Consider `CC(C)C[C@@H]1NC(=O)CCCOc2ccc(cc2)C[C@@H]([C@H](O)CN2CCCC[C@H]2C(=O)NC(C)(C)C)NC1=O` [Compound 54], for which the “protease inhibition, stated in words” value is on record as “slightly better than the isopropyl of 48/49”. Regarding `CC(C)C[C@@H]1NC(=O)CCCOc2ccc(cc2)C[C@@H]([C@@H](O)CN2CCCC[C@H]2C(=O)NC(C)(C)C)NC1=O` [Compound 55], the “protease inhibition, stated in words” value is “slightly better than the isopropyl of 48/49”. As to `CC(=O)Nc1ccc(S(=O)(=O)N(CCC(C)C)C[C@H](O)[C@@H]2Cc3ccc(cc3)OCCCC(=O)N[C@@H](C(C)C)C(=O)N2)cc1` [Compound 59], the “protease inhibition, stated in words” value is “potent inhibitors of HIV-1 protease”.

In the case of `CC(C)CCN(C[C@@H](O)[C@@H]1Cc2ccc(cc2)OCCCC(=O)N[C@@H](C(C)C)C(=O)N1)S(=O)(=O)c1ccc(N)cc1` [Compound 60], the “protease inhibition, stated in words” value is reported as “Greater activity; also recorded: potent inhibitors of HIV-1 protease”. Moreover, under setting [2], the IC50 is 2 nM.

For `CC(C)CCN(C[C@@H](O)[C@@H]1Cc2ccc(cc2)OCCCCC(=O)N[C@@H](C(C)C)C(=O)N1)S(=O)(=O)c1ccc(N)cc1` [Compound 62], the IC50 under setting [2] was found to be 1 nM.

For the compound `CC(C)CCN(C[C@@H](O)[C@@H]1Cc2ccc(cc2)OCCCCCC(=O)N[C@@H](C(C)C)C(=O)N1)S(=O)(=O)c1ccc(N)cc1` [Compound 64], the IC50 (read-out: IC50) is 2 nM. As for `CC(C)[C@@H]1NC(=O)CCCOc2ccc(cc2)C[C@@H]([C@H](O)CN2CCN(Cc3ccccc3)CC2C(=O)NC(C)(C)C)NC1=O` (stereo partly drawn) [Compound 82], the “protease inhibition, stated in words” value is reported as “increased potency”. The same measure, in the same setting: with `CC(C)[C@@H]1NC(=O)CCCOc2ccc(cc2)C[C@@H]([C@@H](O)CN2CCN(Cc3ccccc3)CC2C(=O)NC(C)(C)C)NC1=O` (stereo partly drawn) [Compound 83] the entry was “increased potency”. As for `CC[C@H](C)[C@@H]1NC(=O)[C@@H](NC[C@@H](O)[C@H](Cc2ccccc2)NC(=O)[C@@H](NC(=O)[C@H](CC(C)C)NC(C)=O)C(C)C)Cc2ccc(cc2)OCCCNC1=O` [Compound 87, [2(R),3(S),11'(S),8'(S)]-3-[-Acetyl-(S)-leucinyl-(S)-valinyl]amino-4-phenyl-1-[11'-[7',10'-dioxo-8'-(1-methylpropyl)-2'-oxa-6',9'-diazabicyclo[11.2.2]heptadeca-13',15',16'-triene]amino]butan-2-ol], the “protease inhibition, stated in words” value is listed as “little effect”. In addition, the IC50 under setting [3] is 2 nM. With `CC[C@H](C)[C@@H]1NC(=O)[C@@H](NC[C@@H](O)[C@H](Cc2ccccc2)NC(=O)[C@@H](NC(=O)[C@H](CC(C)C)NC(C)=O)C(C)C)Cc2ccc(cc2)OCCCCNC1=O` [Compound 88], the “protease inhibition, stated in words” value is “little effect”. The IC50 under setting [3] turned out to be 5 nM.

With `CC[C@H](C)[C@@H]1NC(=O)[C@@H](NC[C@@H](O)[C@H](Cc2ccccc2)NC(=O)OC(C)(C)C)Cc2ccc(cc2)OCCCNC1=O` [Compound 89, [2R, 3S, 11'S, 8'S]-3-[t-butoxycarbonyl]amino-4-phenyl-1-[11'-[7', 10'-dioxo-8'-(1-methylpropyl)-2'-oxa-6',9'-diazabicyclo[11.2.2]heptadeca-13',15',16'-triene]amino]butan-2-ol], the IC50 under setting [3] amounted to 15 nM.

As to `CC[C@H](C)[C@@H]1NC(=O)[C@@H](NC[C@H](Cc2ccccc2)NC(=O)OC(C)(C)C)Cc2ccc(cc2)OCCCNC1=O` [Compound 90, [2S, 11'S, 8'S]-2-[t-butoxycarbonyl]amino-3-phenyl-1-[11'-[7',10'-dioxo-8'-(-1-methylpropyl)-2'-oxa-6',9'-diazabicyclo[11.2.2]heptadeca-13',15',16'-triene]amino]propane], the IC50 under setting [3] was found to be 150 nM. Take `CC[C@H](C)[C@@H]1NC(=O)[C@@H](NC[C@@H](O)[C@H](Cc2ccccc2)NC(=O)O[C@H]2CCOC2)Cc2ccc(cc2)OCCCNC1=O` [Compound 91, [2R, 3S, 11'S, 8'S]-3-[3S-tetrahydrofuranyloxy]amino-4-phenyl-1-[11'-[7',10'-dioxo-8'-(1-methylpropyl)-2'-oxa-6',9'-diazabicyclo[11.2.2]heptadeca-13',15',16'-triene]amino]butan-2-ol]: the “protease inhibition, stated in words” value is “not better as a P2 filler over the t-butyl group in 89”. The IC50 under setting [3] stood at 15 nM. For `CC[C@H](C)[C@@H]1NC(=O)[C@@H](NCC(O)[C@H](Cc2ccccc2)NC(=O)c2cccc(C)c2)Cc2ccc(cc2)OCCCNC1=O` (stereo partly drawn) [Compound 92], for the setting “read-out: IC50”, the IC50 came to 50 nM. Same read-out and setting: with `O=C1N(Cc2ccc(CO)cc2)[C@H](Cc2ccccc2)[C@H](O)[C@@H](O)[C@@H](Cc2ccccc2)N1Cc1ccc(CO)cc1` [Compound 94, reference compound] the figure was 1 nM.

For `CC[C@H](C)[C@@H]1NC(=O)[C@@H](NC[C@@H](O)[C@H](Cc2ccc(OCC(=O)O)cc2)NC(=O)OC(C)(C)C)Cc2ccc(cc2)OCCCNC1=O` [Compound 99], under setting [4], the IC50 stood at 5 nM. Turning to `CC[C@H](C)[C@@H]1NC(=O)[C@@H](NC[C@@H](O)[C@H](Cc2ccc(OCC(=O)OC)cc2)NC(=O)OC(C)(C)C)Cc2ccc(cc2)OCCCNC1=O` [Compound 101], the IC50 under setting [4] came to 2 nM. Turning to `CCCCCCOC(=O)COc1ccc(C[C@H](NC(=O)OC(C)(C)C)[C@H](O)CN[C@H]2Cc3ccc(cc3)OCCCNC(=O)[C@H]([C@@H](C)CC)NC2=O)cc1` [Compound 105], under setting [4], the IC50 came to 2 nM.

Regarding `CC(C)(C)OC(=O)N[C@@H](Cc1ccccc1)[C@H](O)CN[C@H]1Cc2ccc(cc2)OCCCNC(=O)[C@@H](CCC(N)=O)NC1=O` [Compound 107], the “protease inhibition, stated in words” value is reported as “slightly enhanced activity”. In addition, the IC50 under setting [4] stood at 250 nM.

On to `CC(C)(C)OC(=O)N[C@@H](Cc1ccccc1)[C@@H](O)CN[C@H]1Cc2ccc(cc2)OCCCNC(=O)[C@@H](CCC(N)=O)NC1=O` [Compound 108], for which the “protease inhibition, stated in words” value is listed as “slightly enhanced activity”. Regarding `CC[C@H](C)[C@@H]1NC(=O)[C@@H](NC[C@@H](O)[C@@H]2Cc3ccc(cc3)OCCCC(=O)N[C@@H](CC(N)=O)C(=O)N2)Cc2ccc(cc2)OCCCNC1=O` [Compound 109], the “potency relative to compound 110” value is given as 100 -fold. Regarding `CC[C@H](C)[C@@H]1NC(=O)[C@@H](NC[C@@H](O)[C@@H]2Cc3ccc(cc3)OCCCC(=O)N[C@@H](C(C)C)C(=O)N2)Cc2ccc(cc2)OCCCNC1=O` [Compound 111], the IC50 by setting is: (Table 11, pH 6.5, 37° C., read-out: IC50) 8 nM; (read-out: IC50) 1 nM. With `CC[C@H](C)[C@@H]1NC(=O)[C@@H]2CN(CCCCCNC1=O)CCN2C[C@@H](O)[C@@H]1Cc2ccc(cc2)OCCCC(=O)N[C@@H](C(C)C)C(=O)N1` [Compound 123], the “protease inhibition, stated in words” value is listed as “more successfully mimics JG-365”.
